Source: patent US8361715B2, “Method for suppressing a FRET signal, FRET signal suppressor agents and use in a method for multiplexing biological events” (CIS Bio International, priority 2006, dated 2013)

Assays:
[1] = test system: trisbipyridine cryptate TBP; conditions: TBP donor, d2 acceptor; 20 mM; incubation 16 h at ambient temperature
Description: Two identical experiments aimed at detecting a GST-biotin protein were carried out. In each of the experiments, a particular rare earth complex was used as FRET donor: either the trisbipyridine cryptate TBP or a terbium chelate sold in a form conjugated to an anti-GST antibody by the company Invitrogen (Cat no. PV3568).
The biotinylated GST protein was dispensed into a 96-well plate. Its presence was detected by FRET between the donor (the TBP or the terbium chelate) (carried by an anti-GST antibody) and the d2 acceptor (carried by streptavidin), after incubation for 16 h at ambient temperature in the presence or absence of 20 mM of manganese chloride (MnCl2) or of EDTA. A time-resolved fluorescence measurement is carried out (td=50 μs, tg=400 μs) at 620 nm and 665 nm (respectively E620 and E665) on a Rubystar® machine (BMG Labtech). Based on the fluorescence intensity values, E620 and E665, the E665/E620 intensity ratio is calculated and multiplied by 10 000 for greater convenience. […] In order to compare the delta F values obtained in the various media for the same donor, said values are normalized relative to the delta F obtained in buffer (100%).

[2] = test system: pyridine-bis(bipyridine) cryptate PBP4COOH; assay: FRET between PBP4COOH donor and d2 acceptor (biotinylated GST detection) with uric acid; conditions: PBP4COOH donor, 60 μM, incubation 16 h at ambient temperature
Description: (§1) In each of the experiments, a particular rare earth complex was used as FRET donor: either the trisbipyridine cryptate TBP or a pyridine-bis(bipyridine) cryptate PBP4COOH of formula: […]
(§2) Its presence was detected via FRET between the donor (the TBP or PBP4COOH) (carried by the anti-GST antibody) and the d2 acceptor (carried by streptavidin), after incubation for 16 h at ambient temperature in the presence or absence of 60 μM of uric acid. A time-resolved fluorescence measurement (td=50 μs, tg=400 μs) is carried out at 620 nm and 665 nm (E620 and E665, respectively) on a Rubystar® machine (BMG Labtech).
(§3) • 1.25 nM biotinylated GST; 2 nM anti-GST; 5 nM streptavidin; • 60 μm uric acid. Final reaction volume: 200 μl Buffer: 100 mM phosphate, pH 7.0, 0.10% BSA. Results

europium cryptate TBP = assay: FRET between TBP donor and d2 acceptor (biotinylated GST detection) with uric acid; conditions: TBP donor, 60 μM, incubation 16 h at ambient temperature
Description: as §1, §2, §3

Row | Molecule | FRET signal (normalized delta F) [1] | FRET signal (normalized delta F) [2] | FRET signal inhibited (europium cryptate TBP)
1 | O=C(O)CN(CCN(CC(=O)O)CC(=O)O)CC(=O)O [EDTA] | does not modify |  | 
2 | O=c1[nH]c(=O)c2[nH]c(=O)[nH]c2[nH]1 [uric acid] |  | does not modify | more than 85%
3 | manganese chloride [MnCl2] | does not modify |  | 
